Legend:
Type in all cases: physicochemical
[1] = Stability of crystal forms suspended and stirred in water, solids characterised by XRD; details: for crystal form stability in water: 25° C. and 37° C., 5 h and 24 h, compared with crystal forms I, II, III, VII, IV, VIII and C
From the text: The solids were filtered and subjected to XRD characterization.

[2] = Storage stability investigation of crystal forms of fruquintinib (crystal form after storage); details: for crystal form stability under the conditions investigated: 25° C./RH60% and 40° C./RH75%, storage up to 6 months (FIG. 4, 5A, 5B)
[3] = Grinding in planetary ball mill, XRD compared with simulated single-crystal pattern; details: 60 HZ, about 30 s
From the text: The XRD pattern after grinding was substantially consistent with FIG. 1B.

| SMILES | Suspending and stirring for 5 h Crystal form ([1]; 25° C.) | Suspending and stirring for 24 h Crystal form ([1]; 25° C.) | Suspending and stirring for 5 h Crystal form ([1]; 37° C.) | Suspending and stirring for 24 h Crystal form ([1]; 37° C.) | crystal form stability under the conditions investigated [2] | Crystal form after storage ([2]; 25° C./RH60%, 6 months) | Crystal form after storage ([2]; 40° C./RH75%, 6 months) | Crystal form after storage ([2]; 25° C./RH60%, 2 months) | Crystal form after storage ([2]; 40° C./RH75%, 2 months) | crystal form stability in water [1] | crystal form stability in water ([1]; listed as crystal form α of fruquintinib) | polymorphic transition after grinding [3] |
| --- | --- | --- | --- | --- | --- | --- | --- | --- | --- | --- | --- | --- |
| CNC(=O)c1c(C)oc2cc(Oc3ncnc4cc(OC)c(OC)cc34)ccc12 [Crystal form VII, 6-(6,7-dimethoxyquinazolin-4-yl-oxy)-N,2-dimethylbenzofuran-3-carboxamide] | Crystal form α | Crystal form α | Crystal form α | Crystal form α | – | – | – | – | – | – | – | – |
| CNC(=O)c1c(C)oc2cc(Oc3ncnc4cc(OC)c(OC)cc34)ccc12 [Crystal form III, 6-(6,7-dimethoxyquinazolin-4-yl-oxy)-N,2-dimethylbenzofuran-3-carboxamide] | Crystal form α | Crystal form α | Crystal form α | Crystal form α | – | – | – | – | – | – | – | – |
| CNC(=O)c1c(C)oc2cc(Oc3ncnc4cc(OC)c(OC)cc34)ccc12 [Crystal form α (after grinding), 6-(6,7-dimethoxyquinazolin-4-yl-oxy)-N,2-dimethylbenzofuran-3-carboxamide] | – | – | – | – | good crystal form stability | Crystal form α | Crystal form α | – | – | – | – | – |
| CNC(=O)c1c(C)oc2cc(Oc3ncnc4cc(OC)c(OC)cc34)ccc12 [Crystal form α, 6-(6,7-dimethoxyquinazolin-4-yl-oxy)-N,2-dimethylbenzofuran-3-carboxamide] | Crystal form α | Crystal form α | Crystal form α | Crystal form α | good crystal form stability | Crystal form α | Crystal form α | Crystal form α | Crystal form α | good stability in water | better crystal form stability | did not undergo polymorphic transition |
| CNC(=O)c1c(C)oc2cc(Oc3ncnc4cc(OC)c(OC)cc34)ccc12 [Crystal form I, 6-(6,7-dimethoxyquinazolin-4-yl-oxy)-N,2-dimethylbenzofuran-3-carboxamide] | Crystal form I | – | Crystal form I | – | – | – | – | – | – | – | – | – |
| CNC(=O)c1c(C)oc2cc(Oc3ncnc4cc(OC)c(OC)cc34)ccc12 [Crystal form II, 6-(6,7-dimethoxyquinazolin-4-yl-oxy)-N,2-dimethylbenzofuran-3-carboxamide] | Crystal form α | Crystal form α | Crystal form α | Crystal form α | – | – | – | – | – | – | – | – |
| CNC(=O)c1c(C)oc2cc(Oc3ncnc4cc(OC)c(OC)cc34)ccc12 [Crystal form VIII, 6-(6,7-dimethoxyquinazolin-4-yl-oxy)-N,2-dimethylbenzofuran-3-carboxamide] | Crystal form α | Crystal form α | Crystal form α | Crystal form α | – | – | – | – | – | – | – | – |
| CNC(=O)c1c(C)oc2cc(Oc3ncnc4cc(OC)c(OC)cc34)ccc12 [Crystal form IV, 6-(6,7-dimethoxyquinazolin-4-yl-oxy)-N,2-dimethylbenzofuran-3-carboxamide] | Crystal form α | Crystal form α | Crystal form α | Crystal form α | – | – | – | – | – | – | – | – |
| CNC(=O)c1c(C)oc2cc(Oc3ncnc4cc(OC)c(OC)cc34)ccc12 [Crystal form α + crystal form I, 6-(6,7-dimethoxyquinazolin-4-yl-oxy)-N,2-dimethylbenzofuran-3-carboxamide] | Crystal form α | Crystal form α | Crystal form α | Crystal form α | – | – | – | – | – | – | – | – |
| CNC(=O)c1c(C)oc2cc(Oc3ncnc4cc(OC)c(OC)cc34)ccc12 [Crystal form C, 6-(6,7-dimethoxyquinazolin-4-yl-oxy)-N,2-dimethylbenzofuran-3-carboxamide] | Crystal form α | Crystal form α | Crystal form α | Crystal form α | – | – | – | – | – | – | – | – |

Reference: patent publication US12624009B2, “Hydrate of VEGFR inhibitor, crystal form thereof and preparation method therefor” (CHENGDU EASTON BIOPHARMACEUTICALS CO., LTD, priority 2023, dated 2026)
